From patent publication US20230181609A1, “IMMUNOMODULATORY OLIGOSACCHARIDES” (The Regents of the University of California, priority 2017, published 2023)

Columns and labels:
[1] = background statement; cited from earlier work
[2] = system: IL-6 and IL-1β mRNA expression in LPS-activated RAW 264.7 cells; experiment: Pro-inflammatory cytokine mRNA expression (RT-PCR) in LPS-stimulated RAW 264.7 macrophages; type: cell-based, murine
Procedure: RAW246.7 cells were exposed to LPS either alone or in combination with either pooled human milk oligosaccharides (HMOs), or 3′-sialyllactose (3′SL) or 2′-fucosyllactose (2′FL). After 6 hours, IL-6 (A) and IL-1β (B) mRNA levels were measured by RT-PCR and are plotted as mean±standard deviation (n=8) relative the respective mRNA levels in cells that were exposed to LPS alone (**p<0.01; ***p<0.001). HMOs are a group of more than 150 different structurally distinct oligosaccharides and their composition follows a basic structural blueprint (C), containing five monosaccharide building blocks: glucose (dark gray circle), galactose (light gray circle), N-acetylglucosamine (dark gray square), fucose (gray triangle) and sialic acid (gray diamond). 3′SL contains lactose with sialic acid at the terminal end; 2′FL contains lactose with fucose at the terminal end.
Oligosaccharides Reduce Pro-Inflammatory Cytokine mRNA Expression in Stimulated Macrophages. HMOs were first isolated and purified from pooled human donor milk (pHMO) by using polymixin B affinity chromatography to remove any lipopolysaccharide (LPS) contamination. RAW 264.7 cells, a murine macrophage cell line, were then incubated with LPS (10 ng/mL) and pHMO (500 ηg/mL) for 6 hours. RT-PCR was used to measure cytokine mRNA expression.
A multi-dimensional chromatography approach was used that separates pHMO first by charge and then by size. […] To exclude that the observed effect was due to impurities or contaminations from the isolation process, the results were confirmed with synthetized and commercially available 3′SL. […] Other oligosaccharides like 2′-fucosyllactose (2′FL), where the terminal monosaccharide is fucose instead of sialic acid (see FIG. 1C), had no effect, emphasizing that the anti-inflammatory effect of 3′SL in macrophages is specific to the structure of 3′SL.

[3] = system: primary mouse cells (bone marrow derived macrophages); experiment: Pro-inflammatory cytokine expression in primary mouse bone marrow derived macrophages; type: cell-based
Excerpt: (§1) Accordingly, the results with 3′SL translate to primary cells as well as to human macrophages.

[4] = system: human THP-1 monocytic cell line; experiment: Pro-inflammatory cytokine expression in human THP-1 monocytic cell line; type: cell-based
Excerpt: as §1

[5] = system: collagen antibody-induced arthritis (CAIA); experiment: Collagen antibody-induced arthritis (CAIA) mouse model; type: in vivo, female BALB/c mice
Procedure: Oral gavage of 3′SL (20 mg thrice daily, beginning at the time of LPS trigger) reduces baseline-corrected ankle swelling (A) and clinical pathology score 28 (B) over the course of the study. […] (*p<0.05, **p<0.01, ***p<0.001).
Rheumatoid Arthritis In vivo Experimental Design. Macrophages and the pro-inflammatory cytokines IL-6 and IL-1β are known to perform a major role in the development and progression of joint destruction in animal models and patients with RA. […] Next, it was asked whether or not the in vitro results translate to an in vivo model. 3′SL efficacy in a collagen antibody-induced arthritis (CAIA) model was tested in mice. In the CAIA model, arthritis is induced by systemic administration of a cocktail of monoclonal antibodies that target various regions of collagen type II, which is one of the major constituents of articular cartilage matrix proteins, followed by the administration of endotoxin (LPS) on day 3. The high uptake rate in the CAIA model and the capacity to synchronize the development of arthritis from the time of antibody injection, makes this a relatively straightforward model that is used to address questions of pathogenic mechanisms and to screen candidate therapeutic agents.
8-week old female BALB/c mice were injected with 1.5 mg of Arthrogen-CIA monoclonal antibody cocktail (Chondrex, Inc.). Three days later, the mice were injected with 25 μg of LPS. Beginning with the time of LPS administration and followed for the next 11 consecutive days, mice were orally gavaged thrice daily with either 3′SL (20 mg in saline) or saline alone as control. With the tester blinded to the study groups, arthritis in each limb was determined once per day. […] By adding together, the scores of all four limbs, the maximum score per mouse is 28. In addition, a caliper was placed across the ankle joint at the widest point to measure ankle thickness in both hind limbs daily. 14 days after antibody cocktail administration, mice were euthanized and hind paws collected and processed for histology. H&E—as well as Toluidine blue-stained sections were scored from 0 to 4 for inflammation, bone erosion and cartilage depletion based on a previously validated scoring system.

[6] = RAW 264.7 cells, LPS 10 ng/mL, 6 hours, compared to LPS alone
[7] = 20 mg in saline, oral gavage thrice daily from LPS administration, vs saline
[8] = hind paws, day 14, scored 0 to 4, 20 mg oral gavage thrice daily

Row | IC50 for reducing IL-6 and IL-1β mRNA expression (dose-range finding studies) ([2]; LPS-stimulated macrophages) | Compound | digestion in the stomach and absorption [1] | tolerability [1] | IL-1β mRNA level [2, 6] | IL-6 mRNA level [2, 6] | pro-inflammatory cytokine expression [3] | pro-inflammatory cytokine expression [4] | Baseline-corrected ankle thickness (paw swelling) [5, 7] | clinical index score 28 [5, 7] | adverse effects ([5]; 14-day study period, 20 mg oral gavage thrice daily) | histology score for cartilage damage [5, 8] | histology score for erosion [5, 8] | histology score for inflammation [5, 8]
1 | – | CC(=O)N[C@H]1[C@H](O[C@H]2[C@@H](O)[C@@H](CO)O[C@@H](O[C@H]3[C@H](O)[C@@H](O)C(O)O[C@@H]3CO)[C@@H]2O)O[C@H](CO)[C@@H](O[C@@H]2O[C@H](CO)[C@H](O)[C@H](O)[C@H]2O)[C@@H]1O (mixture of isomers) [LNnT, lacto-N-(neo)tetraose] | remain undigested in the stomach and are absorbed intact in the lower gastrointestinal tract | well tolerated | – | – | – | – | – | – | – | – | – | –
2 | around 15 μg/mL | CC(=O)N[C@H]1[C@H]([C@H](O)[C@H](O)CO)O[C@@](O[C@H]2[C@@H](O)[C@@H](CO)O[C@@H](O[C@H]3[C@H](O)[C@@H](O)C(O)O[C@@H]3CO)[C@@H]2O)(C(=O)O)C[C@@H]1O (stereo partly shown) [3′SL, 3′-sialyllactose] | – | – | most effective | most effective | reduced | reduced | significantly reduced | significantly reduced | No adverse effects | significantly lower | significantly lower | significantly lower
